Entries after “also recorded” stand apart in the source; their conditions may differ. Counter-ions that a name gives are not always drawn. Like-named read-outs stand apart in the source and are kept apart here.
How the values were obtained:
[1] = target: β-lactamase Tal 3636 CcrA (Bacteroides fragilis, UniProt P25910); assay: biochemical; assay type: biochemical
Method: Representative compounds of the present invention are also tested to determine inhibition of an isolated metallo enzyme Group 3, the β-lactamase Tal 3636 CcrA. […] In the CI assay, enzyme is added last to a mixture of inhibitor and buffer. In the TDI assay, nitrocefin is added last to a mixture of enzyme and inhibitor that had been incubating for approximately 7 minutes.

metallo-β-lactamase = metallo-β-lactamase (Bacteroides fragilis, UniProt P25910); assay: Long term inactivation of the metallo-β-lactamase, residual activity on nitrocefin; assay type: biochemical; conditions: for remaining activity at 8 µM: 42 s, 8 μM inhibitor, after 0.7 minutes, read-out: control activity of metallo-β-lactamase remaining
Method: To test for long term inactivation of the metallo-β-lactamase, the inhibitors are mixed with enzyme and incubated overnight. Enzyme activity is tested for at periodic intervals by diluting the enzyme-inhibitor mixture into nitrocefin and comparing the enzymatic activity against that of an enzyme incubated only in assay broth. […].

CcrA (Metallo) = CcrA (Metallo) (Bacteroides fragilis, UniProt P25910); assay: Spectrophotometric inhibition with 10 minute preincubation, nitrocefin substrate; assay type: biochemical; conditions: for IC50: 10 minute preincubation, 25° C.
PC1 (Penase) = PC1 (Penase) (Staphylococcus aureus, UniProt P00807); assay: as above; assay type: biochemical
TEM-2 (Bd Spectrum) = TEM-2 (Bd Spectrum) (Escherichia coli, UniProt P62593, Q37K); assay type: biochemical; conditions: Table III
P99 (Cephase) = P99 (Cephase) (Enterobacter cloacae, UniProt P05364); assay: Spectrophotometric inhibition with 10 minute preincubation, nitrocefin substrate; assay type: biochemical; conditions: for IC50: 10 minute preincubation, 25° C.
[2] = system: E. coli strains containing β-lactamases; assay: Microbiological testing with piperacillin, β-lactamase-containing strains (summary in words); conditions: β-lactamase-producing strains
E. coli 300 = assay: MIC of piperacillin, broth serial two-fold dilutions, alone or 1:1 with inhibitor; conditions: piperacillin alone
[3] = system: E. coli 300 + P99 (cephase); assay: as above; conditions: piperacillin alone
[4] = system: E. coli 300 + CcrA (metallo-enzyme); assay: as above; conditions: piperacillin alone
E. cloacae + P99 = assay: as above; conditions: piperacillin alone
E. coli + TEM-1 = assay: as above; conditions: piperacillin alone
[5] = CI: enzyme added last, 0.010M HEPES, pH 7.4, nitrocefin 100 μg/ml, read-out: IC50 CI HEPES
[6] = CI: enzyme added last, 0.05M phosphate buffer, pH 7.0, nitrocefin 100 μg/ml, read-out: IC50 CI PHOSPHATE
[7] = TDI: approximately 7 minutes incubation, nitrocefin added last, 0.010M HEPES, pH 7.4, read-out: IC50 TDI HEPES
[8] = TDI: approximately 7 minutes incubation, nitrocefin added last, 0.05M phosphate buffer, pH 7.0, read-out: IC50 TDI PHOSPHATE
[9] = TDI: approximately 7 minutes incubation, nitrocefin added last, 0.010M HEPES, pH 7.4, 7 min, read-out: IC50 TDI HEPES
[10] = TDI: approximately 7 minutes incubation, nitrocefin added last, 0.05M phosphate buffer, pH 7.0, 7 min, read-out: IC50 TDI PHOSPHATE
[11] = 10 minute preincubation, 25° C., read-out: IC50 PC1 (Penase)

Question: Which results are given for `CCC1=NOC(CC2C(=O)N3C(C(=O)O)C(C)(C)S(=O)(=O)C23)C1` (single isomer, unassigned) [Example 12]?
Answer: IC50 [1, 5]: > 250 µM; IC50 [1, 6]: > 250 µM; IC50 [1, 7]: 77 µM; IC50 [1, 8]: 120 µM

Question: Which results are given for `CC1(C)[C@H](C(=O)O)N2C(=O)[C@@H](CC3CC(c4ccsc4)=NO3)[C@H]2S1(=O)=O` (single isomer, unassigned) [Example 14, 4-Thia-1-azabicyclo[3.2.0.]heptane-2-carboxylic acid, 6-[[4,5-dihydro-3-(3-thienyl)-5-isoxazolyl]methyl]-3,3-dimethyl-7-oxo-, 4,4-dioxide, sodium salt, [2S-[2α, 5α, 6β(R* or S*)]]-]?
Answer: IC50 [1, 5]: 48 µM; IC50 [1, 6]: 33 µM; IC50 [1, 7]: 3.5 µM; IC50 [1, 8]: 9.6 µM

Question: With `CC1(C)[C@H](C(=O)O)N2C(=O)[C@@H](CC3CC(Br)=NO3)[C@H]2S1(=O)=O` (single isomer, unassigned) [Example 16, 4-Thia-1-azabicyclo[3.2.0]heptane-2-carboxylic acid, 6-[(3-bromo-4,5-dihydro-5-isoxazolyl)methyl]-3,3-dimethyl-7-oxo-, 4,4-dioxide, sodium salt, [2S-[2α,5α,6β(R* or S*)]]-] as the compound, how does the IC50 [1, 5] read?
Answer: Its IC50 is 18 µM.

Question: What about the IC50 [1, 6] of the same compound?
Answer: The IC50 was 48 µM.

Question: And the IC50 [1, 7]?
Answer: Its IC50 is 2.4 µM.

Question: What about the IC50 [1, 8] of the same compound?
Answer: Its IC50 is 6 µM.

Question: Which results are given for `Cc1ccc(C2=NOC(C[C@@H]3C(=O)N4[C@@H](C(=O)O)C(C)(C)S(=O)(=O)[C@H]34)C2)cc1` (stereo partly drawn) [Example 4, 4-Thia-1-azabicyclo[3.2.0]heptane-2-carboxylic acid, 6-[[4,5-dihydro-3-(4-methylphenyl)-5-isoxazolyl]-methyl]-3,3-dimethyl-7-oxo-, sodium salt, 4,4-dioxide, [2R-[2α,5α,6β(R*)]]-]?
Answer: IC50 [1, 5]: 9.7 µM; IC50 [1, 6]: 16 µM; IC50 [1, 9]: 1.3 µM; IC50 [1, 10]: 2 µM; remaining activity at 8 µM (metallo-β-lactamase): 44%; metalloenzyme activity recovered (metallo-β-lactamase; after overnight incubation): 71%; IC50 (CcrA (Metallo)): 0.65 µM; Inhibition of Group 3 metallo-β-lactamases (in words) (CcrA (Metallo); Table III): inhibited about equally; IC50 (PC1 (Penase); [11]): 0.72 µM; Inhibition of PC1 Group 2a penicillinase (in words) (PC1 (Penase); Table III): inhibited about equally; Inhibition of 2b broad spectrum β-lactamase (in words) (TEM-2 (Bd Spectrum)): inhibited about equally; IC50 (P99 (Cephase)): 0.0028 µM; Inhibition of P99 Group 1 cephalosporinase (in words) (P99 (Cephase); Table III): very potent inhibitor of the P99 Group 1 cephalosporinase; Microbiological activity / effect on MICs of piperacillin (in words) [2]: lowers the MICs for all the β-lactamases-producing strains; also recorded: more potent in vitro activity against the P99 cephase than the product of Example 10

Question: With `Cc1ccc(C2=NOC(C[C@@H]3C(=O)N4[C@@H](C(=O)O)C(C)(C)S(=O)(=O)[C@H]34)C2)cc1` (stereo partly drawn) [Example 5, 4-Thia-1-azabicyclo[3.2.0.]heptane-2-carboxylic acid, 6-[[4,5-dihydro-3-(4-methylphenyl)-5-isoxazolyl]methyl]-3,3-dimethyl-7-oxo-, sodium salt, 4,4-dioxide, [2R-[2α,5α,6β(S*)]]-] as the compound, how does the IC50 [1, 5] read?
Answer: Its IC50 is 27 µM.

Question: What about the IC50 [1, 6] of the same compound?
Answer: The IC50 was 68 µM.

Question: What about the IC50 [1, 9] of the same compound?
Answer: The IC50 was 2 µM.

Question: What about the IC50 [1, 10] of the same compound?
Answer: Its IC50 is 6.9 µM.

Question: With `CC(=O)OC(C1CC(c2ccc(C)cc2)=NO1)[C@@H]1C(=O)N2[C@@H](C(=O)O)C(C)(C)S(=O)(=O)[C@H]12` (stereo partly drawn) [Example 10, 4-Thia-1-azabicyclo[3.2,0]heptane-2-carboxylic acid, 6-[(acetyloxy)[4,5-dihydro-3-(4-methylphenyl)-5-isoxazolyl]methyl]-3,3-dimethyl-7-oxo-, sodium salt, 4,4-dioxide, [2S-(2α, 5α, 6β)]-] as the compound, how does the IC50 [1, 5] read?
Answer: The IC50 was 100 µM.

Question: What about the IC50 [1, 6] of the same compound?
Answer: Its IC50 is 210 µM.

Question: What about the IC50 [1, 7] of the same compound?
Answer: Its IC50 is 3.9 µM.

Question: And the IC50 [1, 8]?
Answer: Its IC50 is 3.2 µM.

Question: And the remaining activity at 8 µM (metallo-β-lactamase)?
Answer: The remaining activity at 8 µM was 45%.

Question: What about the enzyme activity lost (metallo-β-lactamase; after overnight incubation) of the same compound?
Answer: The enzyme activity lost was greater than 99%.

Question: What about the IC50 (CcrA (Metallo)) of the same compound?
Answer: The IC50 was 16 µM.

Question: What about the IC50 (PC1 (Penase); [11]) of the same compound?
Answer: Its IC50 is 8 µM.

Question: And the IC50 (P99 (Cephase))?
Answer: Its IC50 is 2.4 µM.

Question: And the “Microbiological activity / effect on MICs of piperacillin (in words)” value [2]?
Answer: Its value is “lowers the MICs of piperacillin for all the E. coli strains containing β-lactamases”.

Question: Which results are given for `CCN1CCN(C(=O)N[C@@H](C(=O)N[C@@H]2C(=O)N3[C@@H]2SC(C)(C)[C@@H]3C(=O)O)c2ccccc2)C(=O)C1=O` [Piperacillin, piperacillin]?
Answer: Minimum Inhibitory Concentration of Piperacillin (E. coli 300): 1 µg/mL; Minimum Inhibitory Concentration of Piperacillin [3]: 16 µg/mL; Minimum Inhibitory Concentration of Piperacillin [4]: 4 µg/mL; Minimum Inhibitory Concentration of Piperacillin (E. cloacae + P99): 128 µg/mL; Minimum Inhibitory Concentration of Piperacillin (E. coli + TEM-1): > 1024 µg/mL; Microbiological activity / effect on MICs of piperacillin (in words) [2]: decreased microbiological activity (increased MICs) in E. coli strains that had β-lactamases introduced into them

Question: For `CC1(C)[C@H](C(=O)O)N2C(=O)C[C@H]2S1(=O)=O` [Sulbactam, sulbactam, reference compound], which IC50 (PC1 (Penase)) is on record?
Answer: The IC50 was 0.08 µM.

Question: Which IC50 (PC1 (Penase)) does the source give for `C[C@]1(Cn2ccnn2)[C@H](C(=O)O)N2C(=O)C[C@H]2S1(=O)=O` [Tazobactam, tazobactam, reference compound] here?
Answer: Its IC50 is 0.032 µM.

— patent publication US5488106A
